{
  "source": "patent US7824914B2",
  "about": "“Flavonoids-rich tissues from Neomarica gracilis and methods for culturing the same” (Tatung Company, priority 2006, dated 2010)",
  "type_in_all_cases": "cell-based, Neomarica gracilis",
  "key": {"[1]": {"test_system": "N. gracilis rhizome tissue", "assay": "Effect of inoculum weight and PGRs on tissue growth in TIS culture", "settings": "1 mg/L kinetin, inoculum weight 1.5 g, 30 days", "protocol": "(1) To determine the effect of the inoculation weight on tissue growth, the TIS culture chamber was divided into four areas. Liquid cultured N. gracilis rhizome tissue was inoculated at 1.5, 3, 6 and 9 g in each area. The culture medium was an MS medium supplemented with PGR as described in samples T12, T17 and T18 of Table 3. The tissues were cultured under conditions detailed in the Plantima® user's manual and immersed for two minutes every three hours. The cultured tissue was weighted and the medium replaced every ten days.\nThe TIS culture chamber was divided into four areas and liquid cultured N. gracilis rhizome tissue was inoculated at an inoculum weight of 1.5, 3, 6 and 9 g in each area. The culture medium was MS medium supplemented with PGR as described in samples TI2, TI7 and TI8 of Table 3. The cultured tissue was weighted every ten days. […] All other inoculum weights/PGR combinations led to slower growth (FIG. 7)."}, "[2]": {"test_system": "N. gracilis rhizome tissue", "assay": "Effect of PGRs on growth and tectorigenin content in TIS culture", "settings": "for Growth rate: (Final F.W. − Initial F.W.)/Initial F.W.; for F.W. / Tectorigenin: week 4", "protocol": "(2) To determine the effect of PLRs on the grows of N. gracilis and the tectorigenin content influence, ten pieces of liquid cultured N. gracilis rhizome tissue were inoculated in culture media containing MS and PGRs described in samples MS0, TI3, TI4, TI5 and TI6 of Table 3. The culture media were replaced on week 2 and the tissues were harvested on week 4 and analyzed for tectorigenin content.\n(§1) The tectorigenin content of the tissue extract was determined by HPLC analysis using a Cosmosil 5 C18-AR-II column (5 μm, 4.6×250 mm), a Lichrospher® 100 RP-18e Guard column (45×4.6 mm, 5 μm, Merck), a Degasser (ERC-3415α) Pump, a Waters 600E Autosampler and Injector (Schambeck SGD GmbH S5200), a Waters TM 486 UV/VIS Detector, and an Integrator (SISC Xunhua Ltd.). The analysis was performed using a methanol:H2O (0.1% Acetic acid) ratio of 55:45, a flowrate of 0.8 ml/min, and a detection wavelength of 265 nm. The tectorigenin peak of the standard appeared at about 13 min appear.\nTo determine the effect of PGRs on the tectorigenin content, ten pieces of liquid cultured N. gracilis rhizome tissue (1.5 g each) were inoculated in culture media containing MS and PGRs described in samples MS0, TI3, TI4, TI5 and TI6 of Table 3. The tissues were harvested on week 4 and analyzed for tectorigenin content."}, "[3]": {"test_system": "N. gracilis rhizome tissue", "assay": "Effect of plant growth regulators on N. gracilis rhizome tissue growth and tectorigenin content in flask culture", "protocol": "(2) To determine the effect of plant growth regulators (PGR), sprouts from liquid cultured N. gracilis rhizome tissue were removed with a scalpel. The rhizome tissue was inoculated at an inoculum weight of 3% (g F.W./50 ml) in culture medium containing MS basic medium supplemented with PGRs as shown in Table 2. The culture medium was changed every two weeks. The cultured tissue was weighted at each medium change for a total of eight weeks.\nN. gracilis rhizome tissue was frozen at −80° C. for 10 hours, dried in a refrigerated vacuum drier (VirTis Freezemobile 12XL) overnight, and grinded. 0.5 g of dried and grinded tissue was suspended in adequate amount of methanol in a 10 ml flask, […] incubated at 60° C. with ultrasonic vibration for 1 hour, and cooled. Methanol was then added to the suspension to a final volume of 10 ml. The suspension was filtered with Whatman No. 1 filter paper. The filtered solution was sealed in brown sample vials and placed in cold room for future experiments.\nas §1\nN. gracilis rhizome tissue was inoculated at an inoculum weight of 3% (g F.W./[…]) in culture medium containing MS supplemented with various amount of PGRs (Table 2). The culture medium was changed and the fresh weight of the tissues was measured every two weeks. Significant increases in fresh weight were observed during 6-8 weeks of culture (FIG. 3)."}, "[4]": {"test_system": "N. gracilis rhizome tissue", "assay": "Effect of ancymidol on sprout formation and tectorigenin content of cultured rhizome tissue", "protocol": "(§2) (4) To determine ancymidol's effect on sprout formation and tectorigenin content, liquid cultured N. gracilis rhizome tissue was inoculated at an inoculum weight of 3% (g F.W./100 ml) to a subculture medium containing MS, 0.5 mg/L BA, 0.1 mg/L 2,4-D and 0.84 mg/L NAA. At day 7 and 14 of the culture, sterilely filtered (0.2 um) ancymidol was added to the culture medium to a final concentration of 0.5, 1.0, or 2.0 mg/L. The growth of the tissue was monitored and the tectorigenin content analyzed.\nas §1\nas §2, with “Liquid” for “(4) To determine ancymidol's effect on sprout formation and tectorigenin content, liquid”"}, "[5]": {"test_system": "N. gracilis rhizome tissue", "assay": "Tectorigenin content during growth of rhizome tissue in flask culture (weekly for 8 weeks)", "settings": "0.1 mg/L NAA, week 1, flask culture", "protocol": "(3) To determining the growth curve of N. gracilis rhizome tissue and the tectorigenin content, sprouts from liquid cultured N. gracilis rhizome tissues were removed with a scalpel. The rhizome tissue was inoculated at an inoculum weight (g F.W./50 ml) in culture medium containing the MS basic medium supplemented with 0.1 mg/L NAA or a mixture of 1 mg/L NAA and 1.0 mg/L 2,4-D. The tissues were weighted and analyzed for tectorigenin content every week for eight consecutive weeks.\nas §1\nRhizome tissue was inoculated at an inoculum weight of 3% (g F.W./50 ml) in culture medium containing MS basic medium supplemented with 0.1 mg/L NAA or a mixture of 1 mg/L NAA and 1.0 mg/l 2,4-D. The tissues were weighted and analyzed for tectorigenin content every week for eight consecutive weeks."}, "[6]": {"settings": "NAA 0.1 mg/l, 2,4-D 0, 8 weeks flask culture"}, "[7]": {"settings": "NAA 0.5 mg/l, 2,4-D 0, 8 weeks flask culture"}, "[8]": {"settings": "NAA 1.0 mg/l, 2,4-D 0, 8 weeks flask culture"}, "[9]": {"settings": "NAA 2.0 mg/l, 2,4-D 0, 8 weeks flask culture"}, "[10]": {"settings": "IAA 0.1 mg/L, Kinetin 0, 8 weeks flask culture"}, "[11]": {"settings": "IAA 0.5 mg/L, Kinetin 0, 8 weeks flask culture"}, "[12]": {"settings": "IAA 1 mg/L, Kinetin 0, 8 weeks flask culture"}, "[13]": {"settings": "2,4-D 0.1 mg/l, NAA 0, 8 weeks flask culture"}, "[14]": {"settings": "2,4-D 1.0 mg/l, NAA 0, 8 weeks flask culture"}},
  "note": "Several values for one entry are separate records, joined by “and”; a condition that tells them apart may be missing. Equal entries are not always repeated.",
  "data": [
    {"compound": "c1coc(CNc2ncnc3[nH]cnc23)c1", "note": "[Kinetin, kinetin]", "values": [
      {"measurement": "fresh weight", "setting": "[1]", "result": "6.76 ± 0.33", "unit": "g"},
      {"measurement": "fresh weight as fold of the inoculum weight", "setting": "[1]", "result": 4.5, "unit": "fold"},
      {"measurement": "Growth rate", "setting": "[2]; Kinetin 1.0 mg/l", "result": "2.07 ± 0.15"},
      {"measurement": "F.W.", "setting": "[2]; Kinetin 1.0 mg/l", "result": "46.12 ± 2.18", "unit": "g"},
      {"measurement": "Tectorigenin", "setting": "[2]; Kinetin 1.0 mg/l", "result": "10 ± 0.15", "unit": "mg/kg D.W."},
      {"measurement": "change of tectorigenin content (in words)", "setting": "[3]; flask culture, 8 weeks", "result": "did not result in any increase in the tectorigenin content"}
    ]},
    {"compound": "COc1ccc(C(O)(c2cncnc2)C2CC2)cc1", "note": "(stereo not shown) [Ancymidol, ancymidol]", "values": [
      {"measurement": "effect on tectorigenin content (in words)", "setting": "[4]; 0.5 or 2.0 mg/L added on day 14", "result": "reduced tectorigenin content"},
      {"measurement": "Tectorigenin", "setting": "[4]; Ancymidol 0.5 mg/L added day 7, 3 weeks of culture", "result": "28.31 ± 0.11", "unit": "b mg/kg D.W."},
      {"measurement": "Tectorigenin", "setting": "[4]; Ancymidol 0.5 mg/L added day 14, 3 weeks of culture", "result": "18.59 ± 0.07", "unit": "c mg/kg D.W."},
      {"measurement": "Tectorigenin", "setting": "[4]; Ancymidol 1.0 mg/L added day 7, 3 weeks of culture", "result": "27.74 ± 0.08", "unit": "b mg/kg D.W."},
      {"measurement": "Tectorigenin", "setting": "[4]; Ancymidol 1.0 mg/L added day 14, 3 weeks of culture", "result": "30.81 ± 0.35", "unit": "a mg/kg D.W."},
      {"measurement": "Tectorigenin", "setting": "[4]; Ancymidol 2.0 mg/L added day 7, 3 weeks of culture", "result": "35.65 ± 0.18", "unit": "a mg/kg D.W."},
      {"measurement": "Tectorigenin", "setting": "[4]; Ancymidol 2.0 mg/L added day 14, 3 weeks of culture", "result": "13.36 ± 0.13", "unit": "d mg/kg D.W."},
      {"measurement": "effect on tectorigenin content (in words)", "setting": "[4]; added on day 7", "result": "did not affect the tectorigenin content"},
      {"measurement": "sprout formation (morphology)", "setting": "[4]; added on day 7", "result": "significant reduction of sprout formation"}
    ]},
    {"compound": "O=C(O)Cc1cccc2ccccc12", "note": "[NAA, α-naphthaleneacetic acid]", "values": [
      {"measurement": "Growth rate", "setting": "[2]; NAA 0.1 mg/l", "result": "1.71 ± 0.14"},
      {"measurement": "F.W.", "setting": "[2]; NAA 0.1 mg/l", "result": "40.65 ± 2.09", "unit": "g"},
      {"measurement": "Tectorigenin", "setting": "[2]; NAA 0.1 mg/l", "result": "38 ± 0.57", "unit": "mg/kg D.W."},
      {"measurement": "Growth rate", "setting": "[2]; NAA 0.5 mg/l", "result": "1.10 ± 0.21"},
      {"measurement": "F.W.", "setting": "[2]; NAA 0.5 mg/l", "result": "31.47 ± 3.12", "unit": "g"},
      {"measurement": "Tectorigenin", "setting": "[2]; NAA 0.5 mg/l", "result": "33 ± 0.38", "unit": "mg/kg D.W."},
      {"measurement": "Dry weight", "setting": "[3]; [6]", "result": "1.39 ± 0.32", "unit": "a g"},
      {"measurement": "Tectorigenin", "setting": "[3]; [6]", "result": "55.5±0.67 mg/kg D.W. and 55.5 ± 0.67 ab mg/kg D.W."},
      {"measurement": "Dry weight", "setting": "[3]; [7]", "result": "1.03 ± 0.31", "unit": "bc g"},
      {"measurement": "Tectorigenin", "setting": "[3]; [7]", "result": "59.9±0.23 mg/kg D.W. and 58.9±0.23 mg/kg D.W. and 58.9 ± 0.23 ab mg/kg D.W."},
      {"measurement": "Dry weight", "setting": "[3]; [8]", "result": "1.05 ± 0.20", "unit": "bc g"},
      {"measurement": "Tectorigenin", "setting": "[3]; [8]", "result": "49.0 ± 0.81", "unit": "bc mg/kg D.W."},
      {"measurement": "Dry weight", "setting": "[3]; [9]", "result": "0.75 ± 0.02", "unit": "cd g"},
      {"measurement": "Tectorigenin", "setting": "[3]; [9]", "result": "9.4 ± 0.22", "unit": "e mg/kg D.W."},
      {"measurement": "tectorigenin content (highest, during week 1)", "setting": "[5]", "result": "56±2.82", "unit": "mg/kg D.W."}
    ]},
    {"compound": "O=C(O)Cc1c[nH]c2ccccc12", "note": "[IAA, indole-3-acetic acid]", "values": [
      {"measurement": "Dry weight", "setting": "[3]; [10]", "result": "1.26 ± 0.22", "unit": "b g"},
      {"measurement": "Tectorigenin", "setting": "[3]; [10]", "result": "11.8 ± 8.4", "unit": "b mg/kg D.W."},
      {"measurement": "Dry weight", "setting": "[3]; [11]", "result": "1.02 ± 0.11", "unit": "bc g"},
      {"measurement": "Tectorigenin", "setting": "[3]; [11]", "result": "37.6±4.9 mg/kg D.W. and 37.6 ± 4.9 a mg/kg D.W."},
      {"measurement": "Dry weight", "setting": "[3]; [12]", "result": "1.70 ± 0.08", "unit": "a g"},
      {"measurement": "Tectorigenin", "setting": "[3]; [12]", "result": "29.0 ± 0.29", "unit": "c mg/kg D.W."}
    ]},
    {"compound": "O=C(O)COc1ccc(Cl)cc1Cl", "note": "[2,4-D, 2,4-dichlorophenoxyacetic acid]", "values": [
      {"measurement": "Dry weight", "setting": "[3]; [13]", "result": "0.92 ± 0.15", "unit": "bc g"},
      {"measurement": "Tectorigenin", "setting": "[3]; [13]", "result": "38.9 ± 1.17", "unit": "cd mg/kg D.W."},
      {"measurement": "Dry weight", "setting": "[3]; [14]", "result": "1.17 ± 0.21", "unit": "ab g"},
      {"measurement": "Tectorigenin", "setting": "[3]; [14]", "result": "36.7 ± 0.33", "unit": "cd mg/kg D.W."}
    ]}
  ]
}
